Counter-ions that a name gives are not always drawn. Like-named read-outs stand apart in the source and are kept apart here.
Columns and labels:
[1] = target: T1, A16V.S108T mutant (mut) of DHFR from Plasmodium falciparum (Plasmodium falciparum, UniProt A7UD81, A16V/S108T); experiment: biochemical
T1 construct: The Dihydrofolate Reductase Domain of Plasmodium falciparum Thymidylate Synthase-Dihydrofolate Reductase; made in house
Experimental: (§1) For determination of the Ki values of a number of synthesized analogues, the assay reactions were initiated with affinity-purified enzyme (^˜0.005-0.01 U ml^−1), and the initial velocities in the presence of varying concentrations of inhibitors were analysed by non-linear least square fit using Kaleidagraph™ software.

[2] = test system: A16V.S108T mutant (mut) of DHFR from Plasmodium falciparum; experiment: biochemical; conditions: resistance factor
Experimental: as §1

[3] = target: T2, DHFR-TS from Trypanosoma cruzi (Trypanosoma cruzi, UniProt Q27793); experiment: Inhibition of T. cruzi DHFR-TS (I50-derived Ki);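 as to all read-outs here: enzymes were recombinant T. cruzi DHFR-TS and human DHFR, both expressed in E. coli and purified on a methotrexate affinity column, with dihydrofolate and NADPH as substrates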; assay type: biochemical; conditions: for Selectivity: human Ki / T. cruzi Ki
T2 construct: pET 11c with the insertion of the complete ORF of the gene tc-dhfrts; made in house; host or cells: E. coli BL21 (DE3)
Experimental: DHFR activity was measured spectrophotometrically by monitoring the decrease in absorbance at 340 mm.
(§2) Inhibition of dihydrofolate reductases by 1,2-dihydro-1,3,5 triazines was analysed with T. cruzi and human DHFR.
(§3) DHFR assays contained 30 mM dihydrofolate, 0.1 mM NADPH, 50 mM TES buffer pH 7, 75 mM 2-mercaptoethanol and specified amounts of inhibitors. The reaction was initiated by addition of 2.8 or 2.3 units of T. cruzi and human, respectively, and monitored at 340 nm.
Selective inhibition of dihydrofolate reductase by 1,2-dihydro-1,3,5-triazines was analysed with T. cruzi and human DHFR. DHFR assays contained 30 μM dihydrofolate, 0.1 mM NADPH, 50 mM TES buffer pH 7, 75 mM β-mercaptoethanol and specified amounts of inhibitors. The reaction was initiated by addition of 2.8 or 2.3 units of T. cruzi and human enzyme, respectively, and monitored at 340 nm.
KiI 50=[I]0.5/((1+[S])/Km)

[4] = target: T3, wild-type (wt) DHFR from Plasmodium falciparum (Plasmodium falciparum, UniProt P13922, N108S/R59C); experiment: Inhibition of wild-type pfDHFR (spectrophotometric, Ki); assay type: biochemical; conditions: Ki(wt) nM;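 also: Affinity-purified enzyme, initial reaction rates measured across a range of inhibitor concentrations, Ki obtained by nonlinear least-squares fitting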
T3 construct: The Dihydrofolate Reductase Domain of Plasmodium falciparum Thymidylate Synthase-Dihydrofolate Reductase; made in house
Experimental: as §1

human DHFR [5] = experiment: Inhibition of human DHFR (I50-derived Ki); assay type: biochemical;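 also: recombinant human DHFR expressed in E. coli and purified by methotrexate affinity chromatography, enzyme activity followed spectrophotometrically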
Experimental: (§4) Folic acid and NADPH, were purchased from Sigma. Dihydrofolate was prepared from folic acid dithionate reduction. Methotrexate (MTX) was from Lederle Laboratories. MTX sepharose CL-6B was prepared according to the protocol described by Dann. et al. IPTG came from Boehringer Manheim. The expression system used for recombinant human DHFR production, which includes the plasmid PB-E1/RB SII, SphI-HDHFR expressed in E. coli M15, was supplied by Santi, D. V (Department of Biochemistry and Biophysics and Department of Pharmaceutical Chemistry, University of California). Recombinant T. Cruzi DHFR-TS was produced using the system pET 11c with the insertion of the complete ORF of the gene tc-dhfrts. The resulting plasmid was called pET DT.
(§5) Human and T.cruzi DHFR were produced using inducible expression systems. For human DHFR, fresh overnight cultures of E. coli M15, transformed with the plasmid, pB-E1/RB SII, SphI-HDHFR, were grown in LB and 0.1 mg/ml ampicillin medium at 28° C. For T.cruzi DHFR-TS, cultures of E. coli, BL21 (DE3) transformed with the plasmid pETDT system were grown at 37° C. The same purification protocol was used for both systems. When OD600 was at 0.8, cells pellets were collected by centrifugation, suspended in 50 ml of LB medium, containing 0.1 mg/ml of ampicillin. 10 ml of this preinocule was added to 2 litres of LB medium. Cultures were shaken at 28° C. or 37° C. (for human and T. cruzi DHFR respectively) and induction with IPTG ImM was performed when OD600 reached 0.8. After IPTG induction, cells were grown overnight in a shaker at 28° C. or 5 hours at 28° C. or 37° C. (for human and T. cruzi DHFR respectively) and then harvested by centrifugation.
(§6) Cell pellets were suspended in sonication buffer (2× TES DHFR:TES 100 mM, 2-mercaptoethanol 150 mM, EDTA 2 mM pH=7) containing protease inhibitors.
(§7) Crude extract was circulated through the MTX-Sepharose column at 4° C. at a flow rate of 0.2 ml/min until the protein was bound to the resin. The column was washed with an excess of buffer B (KH2PO410 mM pH 7, KC1 1M). Protein was eluted at 0.2 min/ml with an elution buffer (100 mM TES, 10 mM DTT, 2 mM EDTA, DHF 8.5 mM), the elution profile was collected in 1 ml fractions using a Pharmacia LKB Frac 200 collector. Finally, the protein was desalted using molecular size exclusion chromatography in a Pharmacia G-25 column. Fractions containing DHFR activity were pooled and concentrated by ultrafiltration using centripreps Amicon.
(§8) The purity of the protein preparation was assessed by detection of a single band of the correct molecular weight stained with coomasie blue following a 12% SDS-PAGE. Protein concentration was determined by the method of Bradford using a BSA as a standard. DHFR activity was measured spectrophotometrically by monitoring the decrease in absorbance at 340 mm. […] One unit of enzyme, is defined as the amount of enzyme which produces 1 nmol of product per min using ε of 12300M^−1 at 340 nm.
as §2, §3
(§9) Selective inhibition of dihydrofolate reductase by 1,2-dihydro-1,3,5-triazines was analysed with T. cruzi and human DHFR. DHFR assays contained 30 μM dihydrofolate, 0.1 mM NADPH, 50 mM TES buffer pH 7, 75 mM β-mercaptoethanol and specified amounts of inhibitors. The reaction was initiated by addition of 2.8 or 2.3 units of T. cruzi and human enzyme, respectively, and monitored at 340 nm. […] KiI 50=[I]0.5/((1+[S])/Km)

human DHFR [6] = target: T4, human DHFR (Homo sapiens, UniProt P00374); experiment: Inhibition of human DHFR (I50-derived Ki); assay type: biochemical; conditions: human DHFR;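 also: recombinant human DHFR expressed in E. coli and purified by methotrexate affinity chromatography, enzyme activity followed spectrophotometrically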
T4 construct: made in house; host or cells: E. coli M15
T4 sequence (P00374 1-187): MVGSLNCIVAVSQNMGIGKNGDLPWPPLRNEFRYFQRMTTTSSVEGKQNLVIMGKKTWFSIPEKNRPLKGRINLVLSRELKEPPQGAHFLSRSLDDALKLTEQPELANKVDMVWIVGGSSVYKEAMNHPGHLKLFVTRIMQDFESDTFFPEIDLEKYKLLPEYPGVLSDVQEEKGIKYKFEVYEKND
Experimental: as §4, §5, §6, §7, §8, §2, §3, §9

[7] = test system: wild-type (TM4/8.2) strain of P. falciparum; experiment: microbe, parasite or virus in culture; assay type: cell-based, Plasmodium falciparum; conditions: Plasmodium falciparum; wild-type strain TM4/8.2
Experimental: Mol. Biochem. Parasitol. […] Science, 1976, 193, 673-675]. In vitro antimalarial activity was determined by using [^3H]-hypoxanthine incorporation method [Desjardins, R. E.; Canfield, C. J.; Haynes, J. D.; Chulay, J. D. Quantitative assessment of antimalarial activity in vitro by a semiautomated microdilution technique. Antimicrob Agents Chemother. 1979, 16, 710-718]. The drugs were initially dissolved in DMSO and diluted with the culture media. Aliquots (25 μl) of drug solution of different concentrations was placed in 96-well plate together with 200 μl of 1.5% cell suspension of parasitized erythrocytes containing 1-2% parasitemia. Final concentration of DMSO was 0.1% where there was no effect on the parasite growth. The mixtures were incubated in a 3% CO2 incubator at 37° C. After 24 h of incubation, 25 μl (0.25 μCi) of [^3H]-hypoxanthine were added to each well. The mixtures were further incubated under the same condition for 18-24 h. DNA of parasites was harvested onto glass filter paper (Unifilter, Packard, USA). The filters were dried and liquid scintillation fluid was added for radioactivity measurement in a 6-probe liquid scintillation-counter (Packard, USA).

T3 sequence (P13922 10-228 R59C/N108S): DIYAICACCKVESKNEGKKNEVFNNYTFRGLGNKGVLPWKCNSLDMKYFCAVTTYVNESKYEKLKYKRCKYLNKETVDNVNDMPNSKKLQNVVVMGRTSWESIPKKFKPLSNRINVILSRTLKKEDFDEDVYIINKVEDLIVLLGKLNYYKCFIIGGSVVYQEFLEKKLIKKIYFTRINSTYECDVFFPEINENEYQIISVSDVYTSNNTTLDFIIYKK
T2 sequence (Q27793 whole entry): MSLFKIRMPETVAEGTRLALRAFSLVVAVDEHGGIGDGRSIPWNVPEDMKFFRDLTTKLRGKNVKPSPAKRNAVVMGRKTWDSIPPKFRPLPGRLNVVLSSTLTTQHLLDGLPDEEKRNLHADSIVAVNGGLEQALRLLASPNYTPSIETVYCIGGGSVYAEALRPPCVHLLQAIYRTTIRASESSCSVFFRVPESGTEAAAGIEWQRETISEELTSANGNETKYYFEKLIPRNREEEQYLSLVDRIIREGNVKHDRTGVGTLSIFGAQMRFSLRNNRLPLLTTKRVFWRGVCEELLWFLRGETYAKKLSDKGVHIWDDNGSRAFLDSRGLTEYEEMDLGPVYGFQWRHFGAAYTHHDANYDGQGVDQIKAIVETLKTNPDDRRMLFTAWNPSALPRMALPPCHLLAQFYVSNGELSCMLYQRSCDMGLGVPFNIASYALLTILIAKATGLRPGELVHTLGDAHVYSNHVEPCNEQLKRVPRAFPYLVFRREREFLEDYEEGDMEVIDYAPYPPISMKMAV
T1 sequence (A7UD81 1-231 A16V/S108T): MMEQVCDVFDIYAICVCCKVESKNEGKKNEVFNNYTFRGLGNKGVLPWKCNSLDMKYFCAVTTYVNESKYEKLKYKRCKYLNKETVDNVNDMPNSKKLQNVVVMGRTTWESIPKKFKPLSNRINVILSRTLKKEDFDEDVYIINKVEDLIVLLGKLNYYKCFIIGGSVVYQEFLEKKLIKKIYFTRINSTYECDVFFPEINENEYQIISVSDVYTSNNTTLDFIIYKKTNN

Row | Structure (SMILES) | Ki [1] | Ki(mut)/Ki(wt) [2] | Ki [3] | Selectivity [3] | Ki [4] | Ki (human)/Ki (P. falc. mut) (human DHFR [5]) | Ki (human)/Ki (P. falc. wt) (human DHFR [5]) | Ki (human)/Ki (T. cruzi) (human DHFR [5]) | Ki (human DHFR [6]; Human Ki (I50)(nM)) | IC50 [7] | Ki (human DHFR [6]; read-out: Human Ki (I50))
1 | NC1=NC(c2cccc(OCc3ccccc3)c2)N(c2cccc(Cc3ccccc3)c2)C(N)=N1 (centres unmarked) [R2=3-BnOC6H4, X=H, Y=Bn, 1-m-benzylphenyl-2-m-benzyloxyphenyl-4,6-diamino-1,2-dihydro-1,3,5-triazine] | 7.4 ± 0.9 nM | 3.2 | 32 nM | 9.1 | 2.3 ± 0.3 nM | 39 | 127 | 9.1 | 292 nM |  | 
2 | NC1=NC(c2ccc(O)cc2)N(c2cccc(Cl)c2)C(N)=N1 (centres unmarked) [(Ib) R2=4-hydroxyphenyl] | 57.7 ± 7.5 nM | 1.0 |  |  | 59.1 ± 1 nM | 0.97 | 0.95 | 1.17 | 56 nM | 3070 nM | 
3 | NC1=NCN(c2cccc(Cc3ccccc3)c2)C(N)=N1 [R2=H, X=H, Y=Bn] | 6 ± 0.1 nM | 0.6 | 29 nM | 2.3 | 9.4 ± 0.4 nM | 11 | 7.0 | 2.27 | 66 nM | 403 nM | 
4 | NC1=NCN(c2ccc(OCc3ccccc3)cc2)C(N)=N1 [R2=H, X=BnO, Y=H] | 28.6 ± 2.2 nM | 1.3 | 10 nM | 4.4 | 22.4 ± 1.3 nM | 1.54 | 1.96 | 4.44 | 44 nM | 690 nM | 
5 | COc1cc(OC)cc(C2N=C(N)N=C(N)N2c2ccc(Cl)cc2)c1 (centres unmarked) [(Ia) R2=3,5-dimethoxyphenyl] | 100 ± 7 nM | 2.6 | 200 nM | 129 | 38.3 ± 8 nM |  |  |  | 25800 nM | 3250 nM | 
6 | NC1=NC(c2cccc(OCc3ccccc3)c2)N(c2cccc(OCc3ccccc3)c2)C(N)=N1 (centres unmarked) [R2=3-BnOC6H4, X=H, Y=BnO, 1-m-benzyloxyphenyl-2-m-benzyloxyphenyl-4,6-diamino-1,2-dihydro-1,3,5-triazine] | 7.2 ± 1 nM | 1.7 | 128 nM | 16.6 | 4.3 ± 0.2 nM |  |  |  | 2130 nM |  | 
7 | COc1ccc(C2N=C(N)N=C(N)N2c2ccc(Cl)cc2)cc1 (centres unmarked) [(Ia) R2=p-methoxyphenyl, 1-p-chlorophenyl-2-p-methoxyphenyl-4,6-diamino-1,2-dihydro-1,3,5-triazine] | 129 ± 25 nM | 11.3 | 26 nM | 212 | 11.4 ± 1.5 nM | 42.9 | 485 | 212 | 5530 nM | 424 nM | 
8 | NC1=NC(c2ccccc2)N(c2ccc(Cl)cc2)C(N)=N1 (centres unmarked) [(Ia) R2=phenyl, 1-(4′-Chlorophenyl)-2-phenyl-4,6-diamino-1,2-dihydro-1,3,5-triazine hydrochloride] | 49.3 ± 3.3 nM |  | 42 nM |  |  |  |  |  |  | 27 nM | 3870 nM
9 | NC1=NC(c2cccc(O)c2)N(c2ccc(Cl)cc2)C(N)=N1 (centres unmarked) [(Ia) R2=m-hydroxyphenyl, 1-p-chlorophenyl-2-m-hydroxyphenyl-4,6-diamino-1,2-dihydro-1,3,5-triazine] | 123 ± 13 nM | 20.6 |  |  | 6 ± 0.4 nM | 13.7 | 280 | 56 | 1680 nM | 48 nM | 
10 | COc1ccc(C2N=C(N)N=C(N)N2c2ccc(F)cc2)cc1 (centres unmarked) [R2=4-MeOC6H4, X=F, Y=H] |  |  | 61 nM | 441 |  |  |  | 441 | 26900 nM |  | 
11 | NC1=NCN(c2ccc(Cl)c(Cl)c2)C(N)=N1 [(Ic) R2=H] | 43.6 ± 5.8 nM | 8.2 | 36 nM | 1.9 | 5.3 ± 0.7 nM |  |  | 0.19 |  | 123 nM | 
12 | NC1=NCN(c2ccc(Br)cc2)C(N)=N1 [R2=H, X=Br, Y=H] |  |  | 100 nM | 4.8 |  |  |  |  | 480 nM |  | 
13 | COc1ccc(C2N=C(N)N=C(N)N2c2ccc(Cl)cc2)cc1OC (centres unmarked) [(Ia) R2=3,4-dimethoxyphenyl] | 124 ± 5 nM | 3.8 | 386 nM | 67 | 32.7 ± 2 nM |  |  |  | 25700 nM | 2270 nM | 
14 | COc1cccc(C2N=C(N)N=C(N)N2c2cccc(Cl)c2)c1 (centres unmarked) [(Ib) R2=3-methoxyphenyl] | 59.1 ± 6.3 nM | 10.9 | 240 nM | 5.3 | 5.4 ± 0.2 nM |  |  |  | 1270 nM | 4370 nM | 
15 | NC1=NC(c2cccc(Oc3ccccc3)c2)N(c2ccc(Cl)c(Cl)c2)C(N)=N1 (centres unmarked) [(Ic) R2=3-phenoxyphenyl] | 5.2 ± 0.6 nM | 2.7 |  |  | 1.9 ± 0.3 nM |  |  |  |  | 330 nM | 
16 | Cl.NC1=NCN(c2ccccc2)C(N)=N1 [R=H, X=H, 1-(phenyl)-4,6-diamino-1,2-dihydro-1,3,5-triazine hydrochloride] | 585 ± 70 nM | 1.8 |  |  | 329 ± 27 nM | 2.44 | 4.35 |  |  |  | 1430 nM
17 | COc1cccc(C2N=C(N)N=C(N)N2c2ccc(Cl)cc2)c1 (centres unmarked) [(Ia) R2=m-methoxyphenyl] | 62.8 ± 2.4 nM | 6.0 |  |  | 10.4 ± 1.4 nM |  |  |  |  | 577 nM | 
18 | Cl.NC1=NC(c2ccccc2)N(c2cccc(Cl)c2)C(N)=N1 (centres unmarked) [(Ib) R2=phenyl, 1-(3′-Chlorophenyl)-2-phenyl-4,6-diamino-1,2-dihydro-1,3,5-triazine hydrochloride] | 10 ± 7 nM | 0.9 |  |  | 11.7 ± 2.5 nM |  |  |  |  | 565 nM | 
19 | NC1=NC(c2cccc(O)c2)N(c2cccc(Cl)c2)C(N)=N1 (centres unmarked) [(Ib) R2=3-hydroxyphenyl] | 19.7 ± 2.4 nM | 0.7 |  |  | 27.9 ± 4.5 nM |  |  |  |  | 551 nM | 

From US20030203908A1, “Dihydrofolate reductase inhibitors” (priority 2000, published 2003)
